Test system: Sprague Dawley (SD) rats
Assay: Effects of compounds for reducing urinary phosphate levels in rats fed treatment diet
Type: in vivo, rat
Settings: male SD rats; for Urinary Phosphate: urine collected on days 5 and 6
Method: House male Sprague Dawley (SD) rats were used for the experiments. The rats were placed singly in wire-bottom cages, fed with Purina 5002 diet, and allowed to acclimate for at least 5 days prior to experimental use.
To establish baseline phosphorus excretion, the rats were placed in metabolic cages for 48 hours. Their urine was collected and its phosphorus content analyzed with a Hitachi analyzer to determine phosphorus excretion in mg/day. Any rats with outlying values were excluded; and the remainder of the rats was distributed into groups.
Purina 5002 was used as the standard diet. The compound or compound mixture being tested was mixed with Purina 5002 to result in a final concentration 0.5% (or as indicated in the table) by weight. Cellulose at 0.5% by weight was used as a negative control. For each rat, 200 g of diet was prepared.
Each rat was weighed and placed on the standard diet. After 4 days the standard diet was replaced with the treatment diet (or control diet for the control group). On days 5 and 6, urine samples from the rats at 24 hours (+/−30 minutes) were collected and analyzed. The test rats were again weighed, and any weight loss or gain was calculated. Any remaining food was also weighed to calculate the amount of food consumed per day. A change in phosphorus excretion relative to baseline and cellulose negative control was calculated using Excel program.

[1] = 0.5% of diet, urinary phosphorus excretion relative to baseline and cellulose negative control
[2] = compound mixed with Purina 5002 diet at 0.5% by weight

Compound | % Control [1] [%] | Urinary Phosphate [2] [mg/day] | % Control (0.30% of diet, relative to baseline and cellulose negative control) [%] | Urinary Phosphate (0.30% of diet) [mg/day] | % Control (0.5% of diet, urinary phosphorus excretion relative to baseline and cellulose negative control, listed as Iron(II) Acetate) [%] | % Control (0.7% of diet, relative to baseline and cellulose negative control) [%] | Urinary Phosphate (0.7% of diet) [mg/day] | Urinary Phosphate (compound mixed with Purina 5002 diet at 0.5% by weight, listed as Iron(II) Acetate) [mg/day]
CC(=O)/C=C(/C)O.CC(=O)/C=C(/C)O.[Fe] [Fe(II) acetylacetonato] | 55.6 | 10.4 | – | – | – | – | – | –
CC(=O)[O-].CC(=O)[O-].[Fe+2] [Iron(II) acetate, iron(II) acetate] | 65.9 | 12.8 | 67.4 | 12.1 | 69.1 | 44.4 | 8.0 | 12.4
O=C([O-])C(=O)[O-].[Fe+2] [Iron(II) oxalate, iron(II) oxalate] | 89.0 | 14.8 | – | – | – | – | – | –
[Fe+2].[O-2] [Iron(II)oxide, iron(II) oxide] | 104.3 | 20.2 | – | – | – | – | – | –
(+)-iron(II) L-ascorbate | 78.6 | 13.4 | – | – | – | – | – | –

Reference: US20130243720A1, “Iron(II)-Containing A Treatments for Hyperphosphatemia” (priority 2006, published 2013)
